From patent US9067911B2, “Piperidine derivatives” (Hoffmann-La Roche Inc., priority 2009, dated 2015)
Counter-ions that a name gives are not always drawn.

biological target: T1, mGlyT-1b (Mus musculus, UniProt P28571); test: Glycine uptake inhibition assay (mGlyT-1b); type: cell-based; settings: [3H]-glycine uptake, Flp-in-CHO cells stably transfected with mGlyT1b cDNA, 20 min preincubation at 22° C.
T1 construct: host or cells: Flp-in-CHO
T1 sequence (P28571 1-651 isoform P28571-2): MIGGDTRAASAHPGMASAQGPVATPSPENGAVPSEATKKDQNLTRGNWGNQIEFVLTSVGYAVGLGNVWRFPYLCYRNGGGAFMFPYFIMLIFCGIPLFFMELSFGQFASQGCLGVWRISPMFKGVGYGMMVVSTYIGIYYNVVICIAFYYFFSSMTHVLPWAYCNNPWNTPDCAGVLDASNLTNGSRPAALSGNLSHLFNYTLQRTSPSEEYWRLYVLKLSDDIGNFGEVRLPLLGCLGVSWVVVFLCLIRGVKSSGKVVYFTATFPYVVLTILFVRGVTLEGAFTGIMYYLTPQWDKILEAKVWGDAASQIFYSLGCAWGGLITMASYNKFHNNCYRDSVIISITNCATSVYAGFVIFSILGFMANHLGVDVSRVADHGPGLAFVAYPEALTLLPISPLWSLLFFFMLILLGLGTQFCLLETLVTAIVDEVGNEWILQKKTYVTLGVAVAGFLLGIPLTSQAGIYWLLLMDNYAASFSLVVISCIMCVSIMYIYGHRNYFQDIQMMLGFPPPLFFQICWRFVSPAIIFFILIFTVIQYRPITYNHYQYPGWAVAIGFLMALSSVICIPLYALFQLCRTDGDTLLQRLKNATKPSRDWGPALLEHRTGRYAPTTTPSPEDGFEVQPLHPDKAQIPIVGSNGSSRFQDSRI
Method: Nutrient mixture F-12 (Gibco Life-technologies), fetal bovine serum (FBS) 5%, (Gibco life technologies), Penicillin/Streptomycin 1% (Gibco life technologies), Hygromycin 0.6 mg/ml (Gibco life technologies), Glutamine 1 mM Gibco life technologies)
150 mM NaCl, 10 mM Hepes-Tris, pH 7.4, 1 mM CaCl2, 2.5 mM KCl, 2.5 mM MgSO4, 10 mM (+) D-glucose.
Flp-in™-CHO (Invitrogen Cat n° R758-07) cells stably transfected with mGlyT1b cDNA.
Glycine Uptake Inhibition Assay (mGlyT-1b)
On day 1 mammalian cells, (Flp-in™-CHO), transfected with mGlyT-1b cDNA, were plated at the density of 40,000 cells/well in complete F-12 medium, without hygromycin in 96-well culture plates. On day 2, the medium was aspirated and the cells were washed twice with uptake buffer (UB). The cells were then incubated for 20 min at 22° C. with either (i) no potential competitor, (ii) 10 mM non-radioactive glycine, (iii) a concentration of a potential inhibitor. A range of concentrations of the potential inhibitor was used to generate data for calculating the concentration of inhibitor resulting in 50% of the effect (e.g. IC50, the concentration of the competitor inhibiting glycine uptake of 50%). A solution was then immediately added containing [^3H]-glycine 60 nM (11-16 Ci/mmol) and 25 μM non-radioactive glycine. The plates were incubated with gentle shaking and the reaction was stopped by aspiration of the mixture and washing (three times) with ice-cold UB. The cells were lysed with scintillation liquid, shaken 3 hours and the radioactivity in the cells was counted using a scintillation counter.

In order of rising IC50:
1. CN1CCCC(NC(=O)c2ccc(C(F)(F)F)cc2C2CC2)(c2ccccc2)C1 (racemic) [Example 13, rac-2-Cyclopropyl-N-(1-methyl-3-phenyl-piperidin-3-yl)-4-trifluoromethyl-benzamide]  13 nM
2. COc1cc(C(F)(F)F)cc(SC)c1C(=O)NC1(c2ccccc2)CCCN(C)C1C (racemic) [Example 11, rac-N-(1,2-Dimethyl-3-phenyl-piperidin-3-yl)-2-methoxy-6-methylsulfanyl-4-trifluoromethyl-benzamide]  20.2 nM
3. COc1cc(C(F)(F)F)cc(SC)c1C(=O)NC1(c2ccccc2)CCCN(C)C1 (racemic) [Example 18, rac-2-Methoxy-N-(1-methyl-3-phenyl-piperidin-3-yl)-6-methylsulfanyl-4-trifluoromethyl-benzamide]  24.4 nM
4. COc1cc(C(F)(F)F)cc(SC)c1C(=O)NC1(c2cccc(Cl)c2)CCCN(C)C1 (racemic) [Example 45, rac-N-[3-(3-Chloro-phenyl)-1-methyl-piperidin-3-yl]-2-methoxy-6-methylsulfanyl-4-trifluoromethyl-benzamide hydrochloride]  24.5 nM
5. COc1cc(C(F)(F)F)cc(SC)c1C(=O)NC1(c2ccc(F)cc2)CCCN(C)C1 (racemic) [Example 27, rac-N-[3-(4-Fluoro-phenyl)-1-methyl-piperidin-3-yl]-2-methoxy-6-methylsulfanyl-4-trifluoromethyl-benzamide]  26.2 nM
6. CCc1cc(C(F)(F)F)ccc1C(=O)NC1(c2ccccc2)CCCN(C)C1 (racemic) [Example 4, rac-2-Ethyl-N-(1-methyl-3-phenyl-piperidin-3-yl)-4-trifluoromethyl-benzamide]  26.4 nM
7. COc1cc(C(F)(F)F)cc(SC)c1C(=O)NC1(c2ccc(Cl)cc2)CCCN(C)C1 (racemic) [Example 28, rac-N-[3-(4-Chloro-phenyl)-1-methyl-piperidin-3-yl]-2-methoxy-6-methylsulfanyl-4-trifluoromethyl-benzamide]  27.7 nM
8. COc1cc(C(F)(F)F)cc(SC)c1C(=O)N[C@@]1(c2ccccc2)C[C@H](C)CN(C)C1 (mixture of isomers) [Example 85, N-((3R,5SR)-1,5-Dimethyl-3-phenyl-piperidin-3-yl)-2-methoxy-6-methylsulfanyl-4-trifluoromethyl-benzamide hydrochloride]  31.3 nM
9. COc1cc(C(F)(F)F)cc(SC)c1C(=O)NC1(c2ccncc2)CCCN(C)C1 (racemic) [Example 71, rac-2-Methoxy-6-methylsulfanyl-N-(1-methyl-1,4,5,6-tetrahydro-2H-[3,4′]bipyridinyl-3-yl)-4-trifluoromethyl-benzamide]  55.9 nM
10. COc1cc(C(F)(F)F)cc(SC)c1C(=O)NC1(c2ccccc2)CC(O)CN(C)C1 (racemic) [Example 51, rac-N-(5-Hydroxy-1-methyl-3-phenyl-piperidin-3-yl)-2-methoxy-6-methylsulfanyl-4-trifluoromethyl-benzamide]  58.2 nM
11. COc1cc(C(F)(F)F)cc(C(F)(F)F)c1C(=O)NC1(c2ccc(F)cc2)CCCN(C)C1 (racemic) [Example 26, rac-N-[3-(4-Fluoro-phenyl)-1-methyl-piperidin-3-yl]-2-methoxy-4,6-bis-trifluoromethyl-benzamide]  59.3 nM
12. CSc1cc(C(F)(F)F)ccc1C(=O)NC1(c2ccccc2)CCCN(C)C1 (racemic) [Example 19, rac-N-(1-Methyl-3-phenyl-piperidin-3-yl)-2-methylsulfanyl-4-trifluoromethyl-benzamide]  67.2 nM
13. COc1cc(C(F)(F)F)cc(SC)c1C(=O)NC1(c2ccccc2)CCCN(C(C)C)C1 (racemic) [Example 55, rac-N-(1-Isopropyl-3-phenyl-piperidin-3-yl)-2-methoxy-6-methylsulfanyl-4-trifluoromethyl-benzamide; hydrochloride]  77.7 nM
14. COc1cc(C(F)(F)F)cc(Br)c1C(=O)NC1(c2ccccc2)CCCN(C)C1 (racemic) [Example 7, rac-2-Bromo-6-methoxy-N-(1-methyl-3-phenyl-piperidin-3-yl)-4-trifluoromethyl-benzamide]  85.4 nM
15. CN1CCCC(NC(=O)c2c(F)cc(C(F)(F)F)cc2C(F)(F)F)(c2ccccc2)C1 (racemic) [Example 5, rac-2-Fluoro-N-(1-methyl-3-phenyl-piperidin-3-yl)-4,6-bis-trifluoromethyl-benzamide]  107 nM
16. COc1cc(C(F)(F)F)cc(SC)c1C(=O)NC1(c2cc(F)ccc2F)CCCN(C)C1 (racemic) [Example 69, rac-N-[3-(2,5-Difluoro-phenyl)-1-methyl-piperidin-3-yl]-2-methoxy-6-methylsulfanyl-4-trifluoromethyl-benzamide]  117 nM
17. CCc1cc(C(F)(F)F)cc(C(F)(F)F)c1C(=O)NC1(c2ccccc2)CCCN(C)C1 (racemic) [Example 25, rac-2-Ethyl-N-(1-methyl-3-phenyl-piperidin-3-yl)-4,6-bis-trifluoromethyl-benzamide]  126 nM
18. COc1cc(C(F)(F)F)cc(SC)c1C(=O)NC1(c2ccc(F)cc2F)CCCN(C)C1 (racemic) [Example 67, rac-N-[3-(2,4-Difluoro-phenyl)-1-methyl-piperidin-3-yl]-2-methoxy-6-methylsulfanyl-4-trifluoromethyl-benzamide]  129 nM
19. COc1cc(C(F)(F)F)cc(C(F)(F)F)c1C(=O)NC1(c2ccccc2)CCCN(C)C1 (racemic) [Example 16, rac-2-Methoxy-N-(1-methyl-3-phenyl-piperidin-3-yl)-4,6-bis-trifluoromethyl-benzamide]  138 nM
20. COc1cc(C(F)(F)F)cc(SC)c1C(=O)NC1(C2CCCCC2)CCCN(C)C1 (racemic) [Example 58, rac-N-(3-Cyclohexyl-1-methyl-piperidin-3-yl)-2-methoxy-6-methylsulfanyl-4-trifluoromethyl-benzamide]  156 nM
21. COc1ccc(C2(NC(=O)c3c(OC)cc(C(F)(F)F)cc3SC)CCCN(C)C2)cc1 (racemic) [Example 46, rac-2-Methoxy-N-[3-(4-methoxy-phenyl)-1-methyl-piperidin-3-yl]-6-methylsulfanyl-4-trifluoromethyl-benzamide]  169 nM
22. COc1cc(C(F)(F)F)cc(SC)c1C(=O)NC1(c2ccccc2F)CCCN(C)C1 (racemic) [Example 68, rac-N-[3-(2-Fluoro-phenyl)-1-methyl-piperidin-3-yl]-2-methoxy-6-methylsulfanyl-4-trifluoromethyl-benzamide]  175 nM
23. COc1cc(C(F)(F)F)cc(SC)c1C(=O)NC1(c2ccc(F)cn2)CCCN(C)C1 (racemic) [Example 47, rac-N-(5-Fluoro-1′-methyl-1′,4′,5′,6′-tetrahydro-2′H-[2,3′]bipyridinyl-3′-yl)-2-methoxy-6-methylsulfanyl-4-trifluoromethyl-benzamide]  181 nM
24. CN1CCCC(NC(=O)c2ccc(C(F)(F)F)cc2OC(F)F)(c2ccccc2)C1 (racemic) [Example 39, rac-2-Difluoromethoxy-N-(1-methyl-3-phenyl-piperidin-3-yl)-4-trifluoromethyl-benzamide]  184 nM
25. COc1cc(C(F)(F)F)cc(SC)c1C(=O)NC1(c2ccccc2)CC(F)CN(C)C1 (racemic) [Example 48, rac-N-(5-Fluoro-1-methyl-3-phenyl-piperidin-3-yl)-2-methoxy-6-methylsulfanyl-4-trifluoromethyl-benzamide]  197 nM
26. CC(C)c1cc(C(F)(F)F)ccc1C(=O)NC1(c2ccccc2)CCCN(C)C1 (racemic) [Example 70, rac-2-Isopropyl-N-(1-methyl-3-phenyl-piperidin-3-yl)-4-trifluoromethyl-benzamide hydrochloride]  197 nM
27. CN1CCCC(NC(=O)c2ccc(C(F)(F)F)cc2C2CCC2)(c2ccccc2)C1 (racemic) [Example 66, rac-2-Cyclobutyl-N-(1-methyl-3-phenyl-piperidin-3-yl)-4-trifluoromethyl-benzamide hydrochloride]  243 nM
